What was measured:
Type in all cases: in vivo, human
adult RA patients [1] = assay: Phase III study, double-blind phase: adverse events
CRP = assay: 9-month open follow-up: CRP; settings: after 12 weeks double-blind, by group; prednisone = Total
Source text: The median values of the inflammatory signs CRP and IL-6 during the open follow-up period (Visit 5 to Visit 8) and the respective absolute changes are presented in Table 12 and FIG. 3.

adult RA patients [2] = assay: 9-month open follow-up on Prednisone delayed-release: duration of morning stiffness; settings: prednisone = all subjects
Source text: Although efficacy was not the main objective of this open follow-up study, the order of reporting was kept the same as in the previous study report on the double-blind phase. […] Mean Daily Duration of Morning Stiffness
The mean daily duration of morning stiffness at start of the double-blind period (Visit 2), at start of the open follow-up period (Visit 5) and at end of study (Visit 8) as well as the relative changes are presented in Table 10 and FIG. 2 for the study population.
Taking advantage of the higher number of available data, the interpretation of the results was carried out for the total numbers.

[3] = 12-week double-blind phase, prednisone = Total
[4] = after 12 weeks double-blind, by group
[5] = subjects of open follow-up, by double-blind group

SMILES: C[C@]12C=CC(=O)C=C1CC[C@@H]1[C@@H]2C(=O)C[C@@]2(C)[C@H]1CC[C@]2(O)C(=O)CO [prednisone]
- All AEs (at least one treatment-emergent AE) (adult RA patients [1]; 12-week double-blind phase, label prednisone = Total of both groups (N = 288)): 118 (41.0) No. (%) subjects
- AE: Abdominal pain (Upper) (adult RA patients [1]; [3]): 13 (4.5) No. (%) subjects
- AE: Flushing (adult RA patients [1]; [3]): 10 (3.5) No. (%) subjects
- AE: Headache (adult RA patients [1]; [3]): 10 (3.5) No. (%) subjects
- AE: Nasopharyngitis (values printed on the line headed 'Upper') (adult RA patients [1]; [3]): 12 (4.2) No. (%) subjects
- AE: Nausea (adult RA patients [1]; [3]): 9 (3.1) No. (%) subjects
- AE: Rheumatoid arthritis (adult RA patients [1]; [3]): 24 (8.3) No. (%) subjects
- Drug-related AE: Abdominal pain (Upper) (adult RA patients [1]; [3]): 7 (2.4) No. (%) subjects
- Drug-related AE: Headache (adult RA patients [1]; [3]): 6 (2.1) No. (%) subjects
- Drug-related AE: Nausea (values printed on the line headed 'Upper') (adult RA patients [1]; [3]): 6 (2.1) No. (%) subjects
- Drug-related AE: Rheumatoid arthritis (adult RA patients [1]; [3]): 5 (1.7) No. (%) subjects
- SAEs (adult RA patients [1]; double-blind phase, both groups, 2.4%): Seven
- AEs causing discontinuation of prednisone (adult RA patients [1]; double-blind phase, both groups, 7.6%): 22 subjects
- SAE judged to be related to prednisone by the investigator (adult RA patients [1]; of the 7 subjects with SAEs): one
- CRP (median), Visit 5 (Start of Follow-up) (CRP): 9.40 (n = 249) mg/L
- Duration of morning stiffness, Visit 5 (Start of Follow-up Period), mean (adult RA patients [2]; [4]): 125.56 min
- Duration of morning stiffness, Visit 5 (Start of Follow-up Period), median (adult RA patients [2]; [4]): 83.93 min
- Duration of morning stiffness, Visit 2 (Start of Double-blind Period), mean (adult RA patients [2]; [5]): 169.80 min
- Duration of morning stiffness, Visit 2 (Start of Double-blind Period), median (adult RA patients [2]; [5]): 143.21 min
